System: not given
Assay: not given
Details: reported in Brandon et al., Annual Reports in Medicinal Chemistry 42, 2007; cited from earlier work

Row | Compound | brain penetration
1 | COc1ccc(Cc2nn3c([C@@H](CCCc4ccccc4)[C@@H](C)O)nc(C)c3c(=O)[nH]2)cc1OC [BAY 60-7550, Bay 60-7550] | limited

System: other PDE isoforms
Assay: not given
Details: reported in Brandon et al., Annual Reports in Medicinal Chemistry 42, 2007; cited from earlier work

Row | Compound | potency at other PDE isoforms
2 | COc1ccc(Cc2nn3c([C@@H](CCCc4ccccc4)[C@@H](C)O)nc(C)c3c(=O)[nH]2)cc1OC [BAY 60-7550, Bay 60-7550] | significant potency

Target: T1, Rhesus PDE2A3 (Macaca mulatta, UniProt B3VTJ2)
T1 construct: made in house; host or cells: AD293 cells, transient transfection; supernatant of sonicated lysate
T1 sequence (B3VTJ2 1-941): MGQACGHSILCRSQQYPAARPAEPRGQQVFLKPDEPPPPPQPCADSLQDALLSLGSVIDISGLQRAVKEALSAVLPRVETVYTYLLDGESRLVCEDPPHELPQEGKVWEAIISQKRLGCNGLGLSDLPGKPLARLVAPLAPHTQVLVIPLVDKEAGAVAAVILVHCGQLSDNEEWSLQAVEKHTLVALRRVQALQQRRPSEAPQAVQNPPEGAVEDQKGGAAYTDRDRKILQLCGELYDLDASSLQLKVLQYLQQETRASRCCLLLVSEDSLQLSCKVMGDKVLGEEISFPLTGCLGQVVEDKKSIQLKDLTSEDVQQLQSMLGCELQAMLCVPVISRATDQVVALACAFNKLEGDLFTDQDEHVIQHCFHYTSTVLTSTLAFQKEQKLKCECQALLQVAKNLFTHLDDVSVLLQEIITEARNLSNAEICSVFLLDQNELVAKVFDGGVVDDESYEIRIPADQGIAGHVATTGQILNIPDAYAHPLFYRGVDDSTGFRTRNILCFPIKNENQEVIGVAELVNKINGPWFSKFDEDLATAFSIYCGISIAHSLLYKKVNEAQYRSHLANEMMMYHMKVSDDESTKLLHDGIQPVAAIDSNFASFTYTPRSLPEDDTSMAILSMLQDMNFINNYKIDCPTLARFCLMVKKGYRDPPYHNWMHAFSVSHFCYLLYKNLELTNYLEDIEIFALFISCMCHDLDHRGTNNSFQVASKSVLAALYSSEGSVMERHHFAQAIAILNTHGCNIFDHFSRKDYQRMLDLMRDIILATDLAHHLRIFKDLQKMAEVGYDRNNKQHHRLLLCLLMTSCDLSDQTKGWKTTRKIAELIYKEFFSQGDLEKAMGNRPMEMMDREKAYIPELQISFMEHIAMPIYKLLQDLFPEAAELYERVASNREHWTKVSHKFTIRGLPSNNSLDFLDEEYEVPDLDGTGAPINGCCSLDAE
Assay: PDE2 fluorescence polarization (IMAP FP) inhibition assay, rhesus PDE2A3
Assay type: biochemical, rhesus macaque
Details: Lab A; read-out: Rhesus PDE2 Ki (nM) Lab A
Description: The activity of the compounds in accordance with the present invention as PDE2 inhibitors may be readily determined using a fluorescence polarization (FP) methodology (Huang, W., et al., J. Biomol Screen, 2002, 7: 215).
The PDE2 inhibitory activity of the compounds of the present invention was determined in accordance with the following experimental method. Rhesus PDE2A3 was amplified from rhesus macaque brain cDNA (Biochain Institute, Hayward, Calif.) using primers based on human PDE2A sequence (accession NM_002599.3) where the forward primer containing a Kozak consensus was 5′-[…]-3′ and the reverse primer was 5′-[…]-3′. Amplification with Easy-A High-Fidelity PCR cloning enzyme (Stratagene, La Jolla, Calif.) was 95° C. for 2 minutes followed by thirty three cycles of 95° C. for 40 seconds, 52° C. for 30 seconds, and 72° C. for 2 minutes 48 seconds. Final extension was 72° C. for 7 minutes. The PCR product was TA cloned into pcDNA3.3-TOPO (Invitrogen, Carlsbad, Calif.) according to standard protocol. A consensus sequence was developed from multiple clones and then deposited into GenBank (EU812167). AD293 cells (Stratagene, La Jolla, Calif.) with 70-80% confluency were transiently transfected with rhesus PDE2A3/pcDNA3.3-TOPO using Lipofectamine 2000 according to manufacturer specifications (Invitrogen, Carlsbad, Calif.). Cells were harvested 48 hours post-transfection and lysed by sonication (setting 3, 10×5 sec pulses) in a buffer containing 20 mM HEPES pH 7.4, 1 mM EDTA and Complete Protease Inhibitor Cocktail Tablets (Roche, Indianapolis, Ind.). Lysate was collected by centrifugation at 75,000×g for 20 minutes at 4° C. and supernatant utilized for evaluation of PDE2 activity. The fluorescence polarization assay for cyclic nucleotide phosphodiesterases was performed using an IMAP® FP kit supplied by Molecular Devices, Sunnyvale, Calif. (product #R8139). […] Assays were performed at room temperature in 384-well microtiter plates with an incubation volume of 20.2 μL. Solutions of test compounds were prepared in DMSO and serially diluted with DMSO to yield 8 μL of each of 10 solutions differing by 3-fold in concentration, at 32 serial dilutions per plate. […] 0% of inhibition is determined by using DMSO (1% final concentrations).
A Labcyte Echo 555 (Labcyte, Sunnyvale, Calif.) is used to dispense 200 nL from each well of the titration plate to the 384 well assay plate. Ten microliters of a solution of enzyme (1/2000 final dilution from aliquots; sufficient to produce 20% substrate conversion) was added to the assay plate. Next 10 uL of a separate solution of the substrate FAM-labeled cAMP (50 nM final concentration product # R7506 from Molecular Devices) and the activator cGMP (1 uM final concentration), prepared in the assay buffer (10 mM Tris HCl, pH 7.2, 10 mM MgCl2, 0.05% NaN3 0.01% Tween-20, and 1 mM DTT) was added to the assay plate and shaken to mix. The reaction is allowed to proceed at room temperature for 60 minutes. A binding solution is then made from the kit components, comprised of 80% Solution A, 20% Solution B and binding reagent at a volume of 1/600 the total binding solution. The enzymatic reaction is stopped by addition of 60 μL of the binding solution to each well of the assay plates and the plates are sealed and shaken for 30 seconds. The plate was incubated at room temperature for at least one hour prior to determining the fluorescence polarization (FP). The parallel and perpendicular fluorescence of each well of the plate was measured using a Tecan Genios Pro plate reader (Tecan, Switzerland) or Perkin Elmer EnVision™ plate reader (Waltham, Mass.). Fluorescence polarization (mP) was calculated from the parallel (S) and perpendicular (P) fluorescence of each sample well and the analogous values for the median control well, containing only substrate (So and Po), using the following equation: Polarization(mP)=1000*(S/So−P/Po)/(S/So+P/Po).

Row | Compound | Ki
3 | Cc1nn(C(C)c2ccc(C(F)(F)F)cc2)c2nc(C3CCOC3)[nH]c(=O)c12 (stereo not shown) [Example 33, 3-Methyl-6-(tetrahydrofuran-3-yl)-1-(1-(4-(trifluoromethyl)phenyl)ethyl)-1H-pyrazolo[3,4-d]pyrimidin-4(5H)-one] | 386 nM
4 | COCCc1nc2c(c(C)nn2C(C)c2ccc(C(F)(F)F)cc2)c(=O)[nH]1 (stereo not shown) [Example 34, 6-(2-Methoxyethyl)-3-methyl-1-(1-(4-(trifluoromethyl)phenyl)ethyl)-1H-pyrazolo[3,4-d]pyrimidin-4(5H)-one] | 267 nM
5 | Cc1nn(C(C)c2ccc(C(F)(F)F)cc2)c2nc(C3CCOCC3)[nH]c(=O)c12 (stereo not shown) [Example 55, 3-Methyl-6-(tetrahydro-2H-pyran-4-yl)-1-{1-[4-(trifluoromethyl)phenyl]ethyl}-1,5-dihydro-4H-pyrazolo[3,4-d]pyrimidin-4-one] | 421 nM
6 | Cc1nc2c(c(C)nn2C(C)C(=O)Nc2ccc(C(F)(F)F)cc2)c(=O)[nH]1 (stereo not shown) [Example 334, 2-(3,6-Dimethyl-4-oxo-4,5-dihydropyrazolo[3,4-d]pyrimidin-1-yl)-N-(4-(trifluoromethyl)phenyl)propanamide] | > 1000 nM
7 | Cc1nc2c(c(C)nn2CC(O)c2ccc(C(F)(F)F)cc2)c(=O)[nH]1 (stereo not shown) [Example 335, 1-(2-Hydroxy-2-(4-(trifluoromethyl)phenyl)ethyl)-3,6-dimethyl-1H-pyrazolo[3,4-d]pyrimidin-4(5H)-one] | > 1000 nM
8 | Cc1nc2c(c(C)nn2CC(C)(O)c2ccc(C(F)(F)F)cc2)c(=O)[nH]1 (stereo not shown) [Example 336, 1-(2-Hydroxy-2-(4-(trifluormethyl)phenyl)propyl)-3,6-dimethyl-1H-pyrazolo[4-d]pyrimidin-4(5H)-one] | > 1000 nM
9 | Cc1nc2c(c(C)nn2CC(=O)Nc2ccc(C(F)(F)F)cc2)c(=O)[nH]1 [Example 337, 2-(3,6-Dimethyl-4-oxo-4,5-dihydro-1H-pyrazolo[3,4-d]pyrimidin-1-yl)-N-(4-(trifluoromethyl)phenyl)acetamide] | > 1000 nM
10 | Cc1nc2c(c(C)nn2C(CCCc2ccccc2)c2sc(C)nc2C)c(=O)[nH]1 (stereo not shown) [Example 339, 1-[1-(2,4-dimethyl-1,3-thiazol-5-yl)-4-phenylbutyl]-3,6-dimethyl-1,5-dihydro-4H-pyrazolo[3,4-d]pyrimidin-4-one] | 292 nM

Same assay, conditions: Lab B; read-out: Rhesus PDE2 Ki (nM) Lab B

Row | Compound | Ki
11 | Cc1nn(C(C)c2ccc(C(F)(F)F)cc2)c2nc(C3CCOC3)[nH]c(=O)c12 (stereo not shown) [Example 33, 3-Methyl-6-(tetrahydrofuran-3-yl)-1-(1-(4-(trifluoromethyl)phenyl)ethyl)-1H-pyrazolo[3,4-d]pyrimidin-4(5H)-one] | 531 nM
12 | Cc1nc2c(c(CCN)nn2C(C)c2ccc(C(F)(F)F)cc2)c(=O)[nH]1 (stereo not shown) [Example 282, 3-(2-Aminoethyl)-6-methyl-1-(1-(4-(trifluoromethyl)phenyl)ethyl)-1H-pyrazolo[3,4-d]pyrimidin-4(5H)-one] | > 2970 nM
13 | CC(c1ccc(C(F)(F)F)cc1)n1nc(COCc2ccccc2)c2c(=O)[nH]c(C(F)F)nc21 (stereo not shown) [Example 283, 3-((Benzyloxy)methyl)-6-(difluoromethyl)-1-(1-(4-(trifluoromethyl)phenyl)ethyl)-1H-pyrazolo[3,4-d]pyrimidin-4(5H)-one] | 387 nM
14 | CC(=O)OCc1nn(C(C)c2ccc(C(F)(F)F)cc2)c2nc(C)[nH]c(=O)c12 (stereo not shown) [Example 319, (6-Methyl-4-oxo-1-(1-(4-(trifluoromethyl)phenyl)ethyl)-4,5-dihydro-1H-pyrazolo[3,4-d]pyrimidin-3-yl)methyl acetate] | 283 nM
15 | Cc1nc2c(c(C)nn2C(C)CNc2ccc(C(F)(F)F)cc2)c(=O)[nH]1 (stereo not shown) [Example 330, 3,6-Dimethyl-1-(1-(4-(trifluoromethyl)phenylamino)propan-2-yl)-1H-pyrazolo[3,4-d]pyrimidin-4(5H)-one] | 2410 nM
16 | Cc1nc2c(c(C)nn2C(C)CN(C)c2ccc(C(F)(F)F)cc2)c(=O)[nH]1 (stereo not shown) [Example 331, 3,6-Dimethyl-1-(1-(methyl(4-(trifluoromethyl)phenyl)amino)propan-2-yl)-1H-pyrazolo[3,4-d]pyrimidin-4(5H)-one] | 1440 nM
17 | Cc1nc2c(c(C)nn2C(C)C(O)c2ccc(C(F)(F)F)cc2)c(=O)[nH]1 (stereo not shown) [Example 332, 1-(1-Hydroxy-1-(4-(trifluoromethyl)phenyl)propan-2-yl)-3,6-dimethyl-1H-pyrazolo[3,4-d]pyrimidin-4(5H)-one] | 8880 nM
18 | Cc1nc2c(c(C)nn2C(C)C(C)(O)c2ccc(C(F)(F)F)cc2)c(=O)[nH]1 (stereo not shown) [Example 333, 1-(3-Hydroxy-3-(4-(trifluoromethyl)phenyl)butan-2-yl)-3,6-dimethyl-1H-pyrazolo[3,4-d]pyrimidin-4(5H)-one] | ~29000 nM
19 | Cc1nc2c(c(C)nn2CC(C)(O)c2ccc(C(F)(F)F)cc2)c(=O)[nH]1 (stereo not shown) [Example 336, 1-(2-Hydroxy-2-(4-(trifluormethyl)phenyl)propyl)-3,6-dimethyl-1H-pyrazolo[4-d]pyrimidin-4(5H)-one] | 7660 nM
